Experimental findings from US20240408093A1, “HETEROBIFUNCTIONAL COMPOUNDS AND THEIR USE IN TREATING DISEASE” (HALDA THERAPEUTICS OPCO, INC., priority 2022, published 2024) are described below.

In general, DC50 refers to the midpoint of the concentration-degradation curve. The term GI50 denotes the concentration giving 50% growth inhibition. A high value points to less potent growth inhibition.

Holding throughout (format): cell-based
One assay relates to GSPT1. Description: Payload release assay (DC50 readout), GSPT1 degradation in the presence of recombinant target protein. The settings on record: I-series compounds (GSPT1 readout inferred). As for the experimental part:
Exemplary compounds were tested for ability to cause degradation of CCNK or GSPT1 in the presence of recombinant target protein.
HEK293 LgBiT/GSPT1 HiBiT CRISPR Knock-in cells (Promega) were cultured in DMEM (Gibco 11995), supplemented with 10% Heat-inactivated FBS (Gibco A38400-01) and 1% Penicillin/Streptomycin (Gibco 15140-122) and 200 Vg/ml Hygromycin B (Gibco 10-687-010) at 37° C. with 5% CO2 in a humidified tissue culture incubator. HEK293 LgBiT/CCNK HiBiT cells (in-house, described above) were cultured in DMEM (Gibco 11995), supplemented with 10% Heat-inactivated FBS (Gibco A38400-01) and 1% Penicillin/Streptomycin (Gibco 15140-122) 200 Vg/ml Hygromycin B (Gibco 10-687-010), and 1 Vg/ml Puromycin Dihydrochloride (Thermo A1113803) at 37° C. with 5% CO2 in a humidified tissue culture incubator. Cells were seeded (1000 cells/well for HEK293 LgBiT/GSPT1 HiBiT cells or 3000 cells/well for HEK293 LgBiT/CCNK HiBiT cells) 384-well, tissue culture-treated white plates (Perkin Elmer 6007680) in 10 μL media lacking selection for 18-24 hours. Plates were spun at 300 g for 30 seconds and stored in the incubator overnight. After 24 hours, a 5 μL aliquot of recombinant target protein (final concentration of either 5 μM KRAS amino acids 1-169, C51S, C80L, C118S, G12C or 3 μM EGFR amino acids 696-1022 or 3 μM EGFR amino acids 696-1022, T790M, L858R) was added to wells, followed immediately by a 5 μL aliquot of 4× compound-containing medium supplemented with Endurazine Substrate (Promega N2570) was added in each well, at a final top concentration of 10 μM test compound and 0.5× Endurazine, with 4-fold dilutions, using DMSO alone as a negative control. Plates were then spun at 300×g for 3 minutes again and cultured at 37° C. with 5% CO2. After 6 hours the plate was read on Envision MultiMode Plate Reader 2105 (Perkin Elmer) to measure luminescence signal. Data was normalized to DMSO treated cell wells. A four-parameter non-linear regression curve fit was applied to dose-response data in Prism to determine the half maximal growth inhibitory concentration (GI50) of each compound.

The next assay deals with HeLa cells (ATCC CCL-2). Put plainly: Cellular growth inhibition assay, HeLa cells (Example 16). The settings on record: Homo sapiens, 72 hours, CellTiter-Glo 2.0.
Assay [1] has as its system HEK293 cells (ATCC CRL-1573). Put plainly: Cellular growth inhibition assay, HEK293 cells (Example 16). Particulars: Homo sapiens, 72 hours, CellTiter-Glo 2.0. (In general: In ATP-based viability assays light output follows the ATP content of the culture.)
[2] abbreviates: 0 μM recombinant EGFR T790M L858R, read-out: DC50 at 0 μM EGFR T790M L858R.
Where [3] appears, read: 0 μM recombinant EGFR WT, read-out: DC50 at 0 μM EGFR WT.
Where [4] appears, read: 3 μM recombinant EGFR T790M L858R, read-out: DC50 at 3 μM EGFR T790M L858R.
Setting [5] is: 3 μM recombinant EGFR WT, read-out: DC50 at 3 μM EGFR WT.

SMILES strings stand for the structures. Read-outs that look alike come from different tables or passages of the source.

For `C=C(COc1cc(Cl)cc(NC(=O)NCc2ccc3c(c2)CN(C2CCC(=O)NC2=O)C3=O)c1)C(=O)Nc1cccc(-c2cccc3cnc(Nc4ccc(N5CCN(CCO)CC5)c(F)c4F)nc23)c1` (centres unmarked) [Compound I-61], the DC50 in the assay on GSPT1 (setting [2]), in the assay with GSPT1 (setting [3]), in the assay with GSPT1 (setting [4]) and with GSPT1 (setting [5]) was under 250 nM each time. Further, the GI50 with HeLa cells (ATCC CCL-2) is 1500 to 10000 nM; in assay [1], under 500 nM.

Regarding `C=C(COC(=O)N1CCN(c2nc(NCc3nc4cc(C)ccc4[nH]3)n3ncc(Br)c3n2)CC1)C(=O)N1C[C@H](COc2nc(Nc3cnn(C)c3)nc3[nH]cc(Cl)c23)[C@@H](OC)C1` [II-185], the values for the 50% growth inhibitory concentration (GI50) (in the assay with HeLa cells (ATCC CCL-2); in assay [1]) were 500 to 1500 nM and under 500 nM, respectively.

For the compound `C=C(COc1cc(Cl)cc(NC(=O)NCc2ccc3c(c2)CN(C2CCC(=O)NC2=O)C3=O)c1)C(=O)Nc1cccc(Oc2nc(Nc3ccc(N4CCN(C)CC4)cc3)nc3ccsc23)c1` (centres unmarked) [Compound I-55], the DC50 with GSPT1 (setting [2]) is under 250 nM; in the assay with GSPT1 (setting [3]), under 250 nM; in the assay on GSPT1 (setting [4]) it was under 250 nM; in the assay on GSPT1 (setting [5]), 250 to 5000 nM. Also, the figures for the GI50 (in the assay with HeLa cells (ATCC CCL-2); in assay [1]) were 1500 to 10000 nM and 500 to 1500 nM, respectively.

Take `C=C(CN(C(=O)NCc1ccc2c(c1)CN(C1CCC(=O)NC1=O)C2=O)c1ccc(C)c(Cl)c1)C(=O)N1C[C@@H](COc2nc(Nc3cnn(C)c3)nc3[nH]cc(Cl)c23)[C@H](OC)C1` (some centres unmarked) [Compound I-71]: the DC50 with GSPT1 (setting [2]), in the assay with GSPT1 (setting [3]), in the assay on GSPT1 (setting [4]) and with GSPT1 (setting [5]) was 250 to 5000 nM in each case. Moreover, the concentration for 50% growth inhibition (GI50) in the assay with HeLa cells (ATCC CCL-2) is over 10000 nM; in assay [1] it was 500 to 1500 nM.

For `C=C(CN1CCN(c2nc(NCc3nc4cc(C)ccc4[nH]3)n3ncc(Br)c3n2)CC1)C(=O)Nc1cc(Nc2nccc(-c3cn(C)c4ccccc34)n2)c(OC)cc1N(C)CCN(C)C` [II-188], the concentration for 50% growth inhibition (GI50) (with HeLa cells (ATCC CCL-2); in assay [1]) was under 500 nM in each case.

As for `C=C(CN1CCN(c2nc(NCc3nc4cc(C)ccc4[nH]3)n3ncc(Br)c3n2)CC1)C(=O)Nc1cccc(-c2cccc3cnc(Nc4ccc(N5CCN(CCO)CC5)c(F)c4F)nc23)c1` [II-191], the concentration for 50% growth inhibition (GI50) (in the assay on HeLa cells (ATCC CCL-2); in assay [1]) was under 500 nM in each case.

Consider `C=C(COc1cc(Cl)cc(NC(=O)NCc2ccc3c(c2)CN(C2CCC(=O)NC2=O)C3=O)c1)C(=O)N1C[C@H](COc2nc(Nc3cnn(C)c3)nc3[nH]cc(Cl)c23)[C@@H](OC)C1` (some centres unmarked) [Compound I-54], for which the DC50 with GSPT1 (setting [2]), in the assay with GSPT1 (setting [3]), in the assay on GSPT1 (setting [4]) and with GSPT1 (setting [5]) was under 250 nM throughout. For the same compound, the GI50 in the assay with HeLa cells (ATCC CCL-2) fell in the range of 1500 to 10000 nM; in assay [1] it was 500 to 1500 nM.

As for `C=C(COc1c(Cl)cccc1NC(=O)NCc1ccc2c(c1)CN(C1CCC(=O)NC1=O)C2=O)C(=O)N[C@@H]1CN(c2nc(Nc3cn(C)nc3OC)c3ncn(C)c3n2)C[C@H]1F` (some centres unmarked) [Compound I-69], the 50% degradation concentration (DC50) with GSPT1 (setting [2]), with GSPT1 (setting [3]), in the assay with GSPT1 (setting [4]) and in the assay on GSPT1 (setting [5]) was under 250 nM each time. For the same compound, the values for the GI50 (in the assay with HeLa cells (ATCC CCL-2); in assay [1]) were 500 to 1500 nM and under 500 nM, respectively.

On to `C=C(CN(C(=O)NCc1ccc2c(c1)CN(C1CCC(=O)NC1=O)C2=O)c1ccc(C)c(Cl)c1)C(=O)Nc1cc(Nc2ncc(-c3cn(C)c4ccccc34)cn2)c(OC)cc1N(C)CCN(C)C` (centres unmarked) [Compound I-42], for which the 50% degradation concentration (DC50) in the assay with GSPT1 (setting [2]) is 250 to 5000 nM; with GSPT1 (setting [3]), 5000 to 10000 nM; in the assay with GSPT1 (setting [4]), under 250 nM; in the assay with GSPT1 (setting [5]), under 250 nM. Also, the concentration for 50% growth inhibition (GI50) (in the assay with HeLa cells (ATCC CCL-2); in assay [1]) was 1500 to 10000 nM in each case.

For the compound `C=C(CN(C(=O)NCc1ccc2c(c1)CN(C1CCC(=O)NC1=O)C2=O)c1ccc(C)c(Cl)c1)C(=O)Nc1cccc(Oc2nc(Nc3ccc(N4CCN(C)CC4)cc3)nc3ccsc23)c1` (centres unmarked) [Compound I-70], the half-maximal degradation concentration (DC50) in the assay on GSPT1 (setting [2]), in the assay with GSPT1 (setting [3]), in the assay with GSPT1 (setting [4]) and with GSPT1 (setting [5]) was 250 to 5000 nM in each case. Besides, the concentration for 50% growth inhibition (GI50) in the assay on HeLa cells (ATCC CCL-2) is over 10000 nM; in assay [1] it was 1500 to 10000 nM.

`C=C(COc1cc(Cl)cc(NC(=O)NCc2ccc3c(c2)CN(C2CCC(=O)NC2=O)C3=O)c1)C(=O)Nc1cc(Nc2nccc(-c3cn(C)c4ccccc34)n2)c(OC)cc1N(C)CCN(C)C` (centres unmarked) [Compound I-59]: the DC50 in the assay with GSPT1 (setting [2]), with GSPT1 (setting [3]), in the assay with GSPT1 (setting [4]) and in the assay with GSPT1 (setting [5]) was under 250 nM each time. Moreover, the GI50 was 1500 to 10000 nM in the assay on HeLa cells (ATCC CCL-2) and under 500 nM in assay [1].

As to `C=C(COc1c(Cl)cccc1NC(=O)NCc1ccc2c(c1)CN(C1CCC(=O)NC1=O)C2=O)C(=O)Nc1cc(Nc2nccc(-c3cn(C)c4ccccc34)n2)c(OC)cc1N(C)CCN(C)C` (centres unmarked) [Compound I-60], the half-maximal degradation concentration (DC50) in the assay with GSPT1 (setting [2]), in the assay with GSPT1 (setting [3]), with GSPT1 (setting [4]) and with GSPT1 (setting [5]) was 250 to 5000 nM in each case. Also, the figures for the concentration for 50% growth inhibition (GI50) (in the assay on HeLa cells (ATCC CCL-2); in assay [1]) were 1500 to 10000 nM and 500 to 1500 nM, respectively.

Take `C=C(COc1cc(Cl)cc(NC(=O)NCc2ccc3c(c2)CN(C2CCC(=O)NC2=O)C3=O)c1)C(=O)N[C@@H]1CN(c2nc(Nc3cn(C)nc3OC)c3ncn(C)c3n2)C[C@H]1F` (some centres unmarked) [Compound I-45]: the DC50 in the assay with GSPT1 (setting [2]), in the assay on GSPT1 (setting [3]), in the assay with GSPT1 (setting [4]) and with GSPT1 (setting [5]) was under 250 nM each time. Also, the GI50 was 1500 to 10000 nM with HeLa cells (ATCC CCL-2) and under 500 nM in assay [1].

As to `C=C(COc1ccc(Cl)cc1NC(=O)NCc1ccc2c(c1)CN(C1CCC(=O)NC1=O)C2=O)C(=O)N[C@@H]1CN(c2nc(Nc3cn(C)nc3OC)c3ncn(C)c3n2)C[C@H]1F` (some centres unmarked) [Compound I-47], the half-maximal degradation concentration (DC50) with GSPT1 (setting [2]), in the assay on GSPT1 (setting [3]), in the assay with GSPT1 (setting [4]) and with GSPT1 (setting [5]) was under 250 nM in each case. Besides, the results for the GI50 (in the assay with HeLa cells (ATCC CCL-2); in assay [1]) were 500 to 1500 nM and under 500 nM, respectively.

Regarding `C=C(COC(=O)n1c(CNc2nc(N3CCNCC3)nc3c(Br)cnn23)nc2cc(C)ccc21)C(=O)N1C[C@H](COc2nc(Nc3cnn(C)c3)nc3[nH]cc(Cl)c23)[C@@H](OC)C1` [Compound V-4], the 50% growth inhibitory concentration (GI50) was 500 to 1500 nM with HeLa cells (ATCC CCL-2) and under 500 nM in assay [1].

For the compound `C=C(CN1C(=O)CCC(N2Cc3cc(CNC(=O)Nc4ccc(C)c(Cl)c4)ccc3C2=O)C1=O)C(=O)Nc1cc(Nc2ncc(-c3cn(C)c4ccccc34)cn2)c(OC)cc1N(C)CCN(C)C` (centres unmarked) [Compound I-87], the 50% degradation concentration (DC50) in the assay with GSPT1 (setting [2]) and in the assay with GSPT1 (setting [3]) was under 250 nM throughout. Moreover, the GI50 (with HeLa cells (ATCC CCL-2); in assay [1]) was under 500 nM throughout.

`C=C(COc1cc(-c2ccccn2)ccc1CNc1nc(N[C@H](CC)CO)nc2c1ncn2C(C)C)C(=O)N[C@@H]1CN(c2nc(Nc3cn(C)nc3OC)c3ncn(C)c3n2)C[C@H]1F` [II-183]: the concentration for 50% growth inhibition (GI50) (in the assay with HeLa cells (ATCC CCL-2); in assay [1]) was under 500 nM in each case.
